Data reported in patent publication US8389764B2, “Urea and sulfamide derivatives as inhibitors of TAFIa” (Sanofi, priority 2006, dated 2013).
Numbered stars: 1 amine (or outer) side, 2 acyl side, 3 side chain; on linkers, the order of the positions; unused ones are H or OH. Square brackets hold non-standard residues; d marks the D form. Peptide text beside a SMILES is read from it. * marks the point of attachment. ξ: configuration not given here. aIle = CC[C@@H](C)[C@H](N)C(=O)O; dCha = N[C@H](CC1CCCCC1)C(=O)O; Phe(ol) = N[C@H](CO)Cc1ccccc1; Ac5c = NC1(C(=O)O)CCCC1; Cbz = O=C(OCc1ccccc1)*; CO = O=C([*:1])[*:2]; ξV = CC(C)C(N)C(=O)O

Target: T1, TAFIa (Homo sapiens, UniProt Q96IY4)
T1 construct: purchased American Diagnostica 874TAFIA
T1 sequence (Q96IY4 115-423): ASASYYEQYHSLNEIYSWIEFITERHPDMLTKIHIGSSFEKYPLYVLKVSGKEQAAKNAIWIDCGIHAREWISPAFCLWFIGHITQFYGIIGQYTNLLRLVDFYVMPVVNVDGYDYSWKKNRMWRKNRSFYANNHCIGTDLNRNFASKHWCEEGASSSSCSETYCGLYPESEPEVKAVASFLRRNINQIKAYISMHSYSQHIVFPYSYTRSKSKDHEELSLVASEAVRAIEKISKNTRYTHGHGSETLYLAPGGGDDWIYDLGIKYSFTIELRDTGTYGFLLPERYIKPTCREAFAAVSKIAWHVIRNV
Assay: TAFIa inhibition, Actichrome plasma TAFI activity kit (American Diagnostica)
Type: biochemical
Details: 15 min preincubation at room temperature, read at 420 nm, duplicate determination of serial dilutions
Description: The enzymic reaction was started by adding 10 μl of TAFIa developer (prediluted 1:2 with assay buffer).
The IC50 values were calculated from the averaged values (duplicate determination) of serial dilutions of the substance with the aid of the Softmax Pro software (version 4.8; Molecular Devices).

| Compound | IC50 [nM] |
| --- | --- |
| CC(C)[C@H](NC(=O)[C@@H](CCCCNC(=O)OCc1ccccc1)NC(=O)N[C@@H](CCCCN)C(=O)O)C(=O)NCC(C)(C)C [Example 121] | 370 |
| CC[C@@H](C)[C@H](NC(=O)[C@@H](CC1CCCCC1)NC(=O)N[C@@H](CCCCN)C(=O)O)C(=O)OC [Example 57] ({Lys-CO}-[dCha]-[aIle]-OMe) | 544 |
| NCCCC[C@H](NC(=O)N[C@H](CC1CCCCC1)C(=O)NCc1ccc(F)cc1F)C(=O)O [Example 11, (S)-6-Amino-2-{3-[(R)-2-cyclohexyl-1-(2,4-difluoro-benzylcarbamoyl)-ethyl]-ureido}-hexanoic acid] | 644 |
| CC(C)[C@H](NC(=O)[C@@H](NC(=O)[C@@H](CCCCNC(=O)OCc1ccccc1)NC(=O)N[C@@H](CCCCN)C(=O)O)C(C)C)C(N)=O [Example 140] ({Lys-CO}-[dK](Cbz)-Val-Val-NH2) | 318 |
| CC(C)[C@@H](NC(=O)N[C@@H](CCCCN)C(=O)O)C(=O)N[C@H]1C[C@H]2CC[C@]1(C)C2(C)C [Example 97] | 462 |
| COc1ccc(CNC(=O)[C@@H](CC2CCCCC2)NC(=O)N[C@@H](CCCCN)C(=O)O)cc1 [Example 21] | 904 |
| COC(=O)C1(NC(=O)[C@@H](CCCCNC(=O)OCc2ccccc2)NC(=O)N[C@@H](CCCCN)C(=O)O)CCCC1 [Example 39] ({Lys-CO}-[dK](Cbz)-[Ac5c]-OMe) | 1140 |
| C[C@H](NC(=O)[C@@H](CCCCNC(=O)OCc1ccccc1)NC(=O)N[C@@H](CCCCN)C(=O)O)c1ccc(Cl)cc1 [Example 44] | 144 |
| CCC(C)CNC(=O)[C@@H](CC1CCCCC1)NC(=O)N[C@@H](CCCCN)C(=O)O (stereo partly drawn) [Example 69] | 1050 |
| CC1CCCCC1NC(=O)[C@@H](NC(=O)[C@@H](CCCCNC(=O)OCc1ccccc1)NC(=O)N[C@@H](CCCCN)C(=O)O)C(C)C (stereo partly drawn) [Example 128] | 391 |
| CC1(C)[C@@H]2CC[C@@]1(C)[C@@H](NC(=O)[C@H](CC1CCC1)NS(=O)(=O)N[C@@H](CCCCN)C(=O)O)C2 [Example 150] | 357 |
| CC1CCCCC1NC(=O)[C@@H](CC1CCCCC1)NC(=O)N[C@@H](CCCCN)C(=O)O (stereo partly drawn) [Example 19] | 353 |
| CC1(C)[C@@H]2CC[C@@]1(C)[C@@H](NC(=O)C(CC1CCCC1)NC(=O)N[C@@H](CCCCN)C(=O)O)C2 (stereo partly drawn) [Example 111] | 4 |
| NCCCC[C@H](NC(=O)N[C@H](CC1CCCCC1)C(=O)NC12CC3CC(CC(C3)C1)C2)C(=O)O [Example 79] | 31 |
| COC(=O)[C@H](Cc1ccc(O)cc1)NC(=O)[C@@H](NC(=O)[C@@H](CC1CCCCC1)NC(=O)N[C@@H](CCCCN)C(=O)O)C(C)C [Example 133] ({Lys-CO}-[dCha]-Val-Tyr-OMe) | 636 |
| CC(C)[C@H](NC(=O)[C@@H](CCCCNC(=O)OCc1ccccc1)NC(=O)N[C@@H](CCCCN)C(=O)O)C(=O)N[C@@H](C)c1ccc(Cl)cc1 [Example 119] | 1300 |
| CC(C)[C@H](NC(=O)[C@@H](CCCCNC(=O)OCc1ccccc1)NC(=O)N[C@@H](CCCCN)C(=O)O)C(=O)N[C@@H]1C[C@H]2CC[C@@H]1C2 [Example 114] | 519 |
| NCCCC[C@H](NC(=O)N[C@H](CC1CCCCC1)C(=O)NCC(c1ccccc1)c1ccccc1)C(=O)O [Example 28] | 118 |
| CC(C)[C@H](NC(=O)[C@@H](CCCCNC(=O)OCc1ccccc1)NC(=O)N[C@@H](CCCCN)C(=O)O)C(=O)N[C@@H]1C[C@H]1c1ccccc1 [Example 127] | 693 |
| CC1(C)[C@@H]2CC[C@@]1(C)[C@@H](NC(=O)[C@@H](CC1CCCCC1)NC(=O)NC(Cc1ccc(N)nc1)C(=O)O)C2 (stereo partly drawn) [Example 110] | 6 |
| CC1(C)[C@@H]2CC[C@@]1(C)C(NC(=O)CC(CC1CCCCC1)NC(=O)N[C@@H](CCCN)C(=O)O)C2 (stereo partly drawn) [Example 95] | 41000 |
| CC(C)C(NC(=O)[C@@H](CC1CCCCC1)NC(=O)N[C@@H](CCCCN)C(=O)O)C(=O)N[C@H](CO)Cc1ccccc1 (stereo partly drawn) [Example 135] ({Lys-CO}-[dCha]-[ξV]-[Phe(ol)]) | 522 |
| CC1(C)[C@@H]2CC[C@@]1(C)[C@@H](NC(=O)[C@@H](CC1CCCCC1)NC(=O)N[C@@H](CCCNC(=N)N)C(=O)O)C2 [Example 91] | 4 |
| CC1(C)[C@@H]2CC[C@@]1(C)[C@@H](NC(=O)[C@@H](CC1CC1)NC(=O)N[C@@H](CCCCN)C(=O)O)C2 [Example 108] | 7 |
